Measurements reported in US10246711B2, “RNAi inhibitors of glucose-6-phosphate dehydrogenase for treating cardiovascular and pulmonary conditions” (priority 2016, dated 2019).

Legend:
Format in all cases: cell-based
G6PD protein = test: Western blot of G6PD protein in hypoxic rat pulmonary artery smooth muscle cells; settings: rat PASMC; 50 ng and 100 ng; hypoxia (1% O2) 72 hr; compared to untransfected (UT), non-targeting (NT) and G6PD-siRNA#1; FIG. 4A
Method: (§1) FIGS. 4A-4B are blots showing rat pulmonary artery smooth muscle cells that were cultured in 15% DMEM for 48 hr and transfected with G6PD-siRNA#1 and G6PD-siRNA#2, respectively (0.5 and 1.0 μl=50 ng and 100 ng, respectively). The cells were then subjected to hypoxia (1% 02) for 72 hr. Expression of G6PD protein was estimated using western blot analyses. UT=Untransfected; NT=non-targeting/scrambled sequence (FIG. 4A). Beta-Actin (ACTB) was used as loading control. FIG. 4B are blots showing the effect of G6PD-siRNA#2 treatment, on the expression of G6PD (FIG. 4B-panel 2), polymerase delta (FIG. 4B-panel 3), cyclin E1 (FIG. 4B-panel 4), and cyclin B (FIG. 4B-panel 5), under normoxic and hypoxic conditions, in these cells were determined using Western blot analyses. GAPDH was used as a loading control.
(§2) In FIGS. 4A-B, rat pulmonary artery smooth muscle cells were cultured in 15% DMEM for 48 hr. Cells were then transfected with G6PD-siRNA#1 and G6PD-siRNA#2, respectively (0.5 and 1.0 μl=50 ng and 100 ng, respectively) and subjected to hypoxia (1% 02) for 72 hr. […] GAPDH was used as a loading control.

[1] = system: polymerase delta, cyclin E1, cyclin B1; test: Western blot of replication and cell cycle proteins in rat pulmonary artery smooth muscle cells; settings: rat PASMC, normoxic and hypoxic conditions
Method: as §1, §2

G6PD = G6PD knockdown by G6PD-specific siRNA sequence (preliminary results); settings: based on preliminary results
Method: PASM cells cultured in a 12-well plate were transfected for 72 h with 100 nmol/1 shRNA targeting G6PD using lipid-based and nano-particle based transfection system. Control experiments were performed using a nontargeting/scrambled (NT) shRNA (negative control).

In the case of “G6PD-siRNA#2: Sense (SEQ ID NO. 6) 5′ CGACGAAGCGCAGACAGCGUC 3′; Antisense (SEQ ID NO. 7) 5′GACGCUGUCUGCGCUUCGUCG3′ (listed as RNA, chemistry not given here)”, the G6PD protein expression (G6PD protein) is reported as “significantly down-regulated”, the “expression of polymerase delta” value ([1]; FIG. 4B-panel 3) is reported as “significantly down-regulated” and the “expression of cyclin E1” value ([1]; FIG. 4B-panel 4) is reported as “significantly down-regulated”. For the same substance, the “expression of cyclin B1” value ([1]; FIG. 4B-panel 5) was “significantly down-regulated”.
“SEQ ID NO: 2: G6PD-specific siRNA gene sequence CAACAUCGCCUGCGUUAUC; nucleotide positions 922-940 of SEQ ID NO. 1 (expressed or natural sequence)” was tested, and the “downregulation of G6PD” value (G6PD) was “specifically and efficaciously downregulated G6PD”.
